Results taken from US8129527B2, “Analogs of dehydrophenylahistins and their therapeutic use” (Nereus Pharmacuticals, Inc., priority 2006, dated 2012).
Like-named read-outs stand apart in the source and are kept apart here.

Tested on: HT-29 cells
Assay: Additional cytotoxicity assays, resazurin (Table 3.1)
Format: cell-based, human
Details: for EC50: Homo sapiens
Description: 10× concentrated serial dilutions of the two compounds were prepared in appropriate culture medium for final concentrations ranging from 2.0×10^−5 M to 2.0×10^−10 M. Ten μl volumes of the 10× serial dilutions were added to the test wells in triplicate and the plates returned to the incubator for 48 hours.
Following 48 hours of drug exposure 10 μl of 0.2 mg/ml resazurin (obtained from Sigma-Aldrich Chemical Co.) in Mg^2+, Ca^2+ free PBS was added to each well and the plates were returned to the incubator for 3-4 hours. […] Resazurin dye without cells was used to determine the background, which was subtracted from the data for all experimental wells. The data were analyzed using Prism software (GraphPad Software).
Additional cytotoxicity assays were performed as described above under this example, using Resazurin fluorescence as an indicator of cell viability.

[1] = HT-29, Table 3.1, read-out: EC50 (M) Mean

C=CC(C)(C)c1[nH]cnc1/C=C1\N=C(OC)C(Cc2ccccc2)N=C1OC (racemic) [Compound 2354, D,L-bislactim-PLH]
EC50 [1]: > 2e-05 M
% cytotox Mean (Table 3.1): 4%

C=CC(C)(C)c1[nH]cnc1/C=C1\NC(=O)C(Cc2ccccc2)N=C1OC (racemic) [Compound 2355, D,L-monolactim-PLH]
EC50 [1]: > 2e-05 M
% cytotox Mean (Table 3.1): 13%

C=CC(C)(C)c1[nH]cnc1/C=C1\NC(=O)[C@H](Cc2ccccc2)NC1=O [Compound 2350, (−)-(S)-Halimide, (−)-(S)-Phenylahistin, (−)-(S)-PLH, reference compound]
EC50 [1]: 3.94e-07 M
% cytotox Mean (Table 3.1): 87%

C=CC(C)(C)c1[nH]cnc1/C=c1\[nH]c(=O)/c(=C/c2ccccc2)[nH]c1=O [Compound 2352, Dehydrophenylahistin]
EC50 [1]: 4.26e-08 M
% cytotox Mean (Table 3.1): 86%

C=CC(C)(C)c1[nH]cnc1/C=c1\[nH]c(=O)/c(=C\c2ccc(OC)cc2)[nH]c1=O [Compound 2357]
EC50 [1]: 8.25e-06 M
% cytotox Mean (Table 3.1): 63%

CC(C)(C)c1[nH]cnc1/C=c1\[nH]c(=O)/c(=C/c2ccccc2)[nH]c1=O [Compound 2358, t-butyl-delta-PLH]
EC50 (HT-29, read-out: EC50 (M) Mean): 1.49e-08 M
% cytotox Mean (Table 3.1): 86%

COc1cc(/C=c2\[nH]c(=O)/c(=C/c3nc[nH]c3C(C)(C)C)[nH]c2=O)cc(OC)c1OC [Compound 2362, tBu-ΔPLH-3,4,5-triOMe]
EC50 (HT-29, read-out: EC50 (M) Mean): 8.19e-06 M
% cytotox Mean (Table 3.1): 78%

COc1cc(/C=c2\[nH]c(=O)/c(=C/c3nc[nH]c3C(C)(C)C)[nH]c2=O)cc(OC)c1 [Compound 2367, tBu-delta-3,5-diOMe]
EC50 [1]: 4.54e-08 M
% cytotox Mean (Table 3.1): 87%

COc1ccc(/C=c2\[nH]c(=O)/c(=C/c3nc[nH]c3C(C)(C)C)[nH]c2=O)c(OC)c1OC [Compound 2368, tBu-delta-PLH-2,3,4-triOMe]
EC50 [1]: 4.8e-06 M
% cytotox Mean (Table 3.1): 78%

CC(C)(C)c1[nH]cnc1/C=c1\[nH]c(=O)/c(=C/c2cc([N+](=O)[O-])ccc2Cl)[nH]c1=O [Compound 2371, tBu-delta-PLH-2-Cl-5-NO2]
EC50 [1]: 5.34e-08 M
% cytotox Mean (Table 3.1): 86%

CC(C)(C)c1[nH]cnc1/C=c1\[nH]c(=O)/c(=C/c2ccc3c(c2)OCO3)[nH]c1=O [Compound 2372, tBu-delta-PLH-3,4-methylene-dioxy]
EC50 [1]: 8.73e-08 M
% cytotox Mean (Table 3.1): 84%

COc1cccc(/C=c2\[nH]c(=O)/c(=C/c3nc[nH]c3C(C)(C)C)[nH]c2=O)c1O [Compound 2373, tBu-delta-PLH-2-OH-3-OMe (o-vanillin)]
EC50 [1]: 5.36e-06 M
% cytotox Mean (Table 3.1): 79%

COc1cccc2cc3c(=O)[nH]/c(=C\c4nc[nH]c4C(C)(C)C)c(=O)n3c12 [Compound 2374, tBu-delta-PLH-cyclized-3-MeO]
EC50 [1]: 6.92e-06 M
% cytotox Mean (Table 3.1): 58%

Cc1ccc(/C=c2\[nH]c(=O)/c(=C/c3nc[nH]c3C(C)(C)C)[nH]c2=O)s1 [Compound 2378, tBu-delta-PLH-5-Me-2-thienyl]
EC50 [1]: 8.52e-08 M
% cytotox Mean (Table 3.1): 85%

Cc1ccsc1/C=c1\[nH]c(=O)/c(=C/c2nc[nH]c2C(C)(C)C)[nH]c1=O [Compound 2379, tBu-delta-PLH-3-Me-2-thienyl]
EC50 [1]: 4.7e-08 M
% cytotox Mean (Table 3.1): 86%

CC(C)(C)c1[nH]cnc1/C=c1\[nH]c(=O)/c(=C/c2cccc3c2OCO3)[nH]c1=O [Compound 2381, tBu-delta-PLH-2,3-methylendioxy]
EC50 [1]: 5.2e-07 M
% cytotox Mean (Table 3.1): 82%

Cc1cccc(/C=c2\[nH]c(=O)/c(=C/c3nc[nH]c3C(C)(C)C)[nH]c2=O)n1 [Compound 2384, tBu-delta-PLH-3-Me-2-pyridyl]
EC50 [1]: > 2e-05 M
% cytotox Mean (Table 3.1): 37%

Cc1[nH]cnc1/C=c1\[nH]c(=O)/c(=C/c2nc[nH]c2C(C)(C)C)[nH]c1=O [Compound 2387, tBu-delta-PLH-5-Me-4-im]
EC50 [1]: 2.35e-06 M
% cytotox Mean (Table 3.1): 84%

CC(C)(C)c1[nH]cnc1/C=c1\[nH]c(=O)/c(=C/c2ccc(C#N)cc2)[nH]c1=O [Compound 2394, tBu-delta-PLH-p-CN]
EC50 [1]: > 2e-05 M
% cytotox Mean (Table 3.1): 14%

COc1cc(OC)c(/C=c2\[nH]c(=O)/c(=C/c3nc[nH]c3C(C)(C)C)[nH]c2=O)c(OC)c1 [Compound 2396, tBu-delta-PLH-2,4,6-TriOMe]
EC50 [1]: > 2e-05 M
% cytotox Mean (Table 3.1): 2%

CC(C)(C)c1[nH]cnc1/C=c1\[nH]c(=O)/c(=C/c2cc(Cl)ccc2[N+](=O)[O-])[nH]c1=O [Compound 2403, tBu-delta-PLH-2-NO2-5-Cl]
EC50 [1]: 9.97e-08 M
% cytotox Mean (Table 3.1): 86%

COc1ccc(O)c(/C=c2\[nH]c(=O)/c(=C/c3nc[nH]c3C(C)(C)C)[nH]c2=O)c1 [Compound 2405, tBu-delta-PLH-2-OH-5-OMe]
EC50 [1]: > 2e-05 M
% cytotox Mean (Table 3.1): 25%

CC(C)(C)c1[nH]cnc1/C=c1\[nH]c(=O)/c(=C/c2cc(Br)ccc2O)[nH]c1=O [Compound 2407, tBu-delta-PLH-2-OH-5-Br]
EC50 [1]: > 2e-05 M
% cytotox Mean (Table 3.1): 13%

COc1ccc(/C=c2\[nH]c(=O)/c(=C/c3nc[nH]c3C(C)(C)C)[nH]c2=O)cc1O [Compound 2408, tBu-delta-PLH-3-OH-4-OMe]
EC50 [1]: 7.48e-06 M
% cytotox Mean (Table 3.1): 66%

COc1ccc(/C=c2\[nH]c(=O)/c(=C/c3nc[nH]c3C(C)(C)C)[nH]c2=O)c(O)c1 [Compound 2409, tBu-delta-PLH-2-OH-4-OMe]
EC50 [1]: > 2e-05 M
% cytotox Mean (Table 3.1): 8%

CC(C)(C)c1[nH]cnc1/C=c1\[nH]c(=O)/c(=C/c2cc(Cl)ccc2O)[nH]c1=O [Compound 2410, tBu-delta-PLH-2-OH-5-Cl]
EC50 [1]: > 2e-05 M
% cytotox Mean (Table 3.1): 37%

CC(C)(C)c1[nH]cnc1/C=c1\[nH]c(=O)/c(=C/c2ccc(Cl)s2)[nH]c1=O [Compound 2412, tBu-delta-PLH-5-Cl-2-thionyl]
EC50 (HT-29, read-out: EC50 (M) Mean): 1.65e-07 M
% cytotox Mean (Table 3.1): 85%

Cn1cccc1/C=c1\[nH]c(=O)/c(=C/c2nc[nH]c2C(C)(C)C)[nH]c1=O [Compound 2414, tBu-delta-PLH-N-Me-2-pyrrole]
EC50 [1]: 1.17e-07 M
% cytotox Mean (Table 3.1): 88%

CC(C)(C)c1[nH]cnc1/C=c1\[nH]c(=O)/c(=C/c2cc(Cl)cc(Cl)c2)[nH]c1=O [Compound 2415, tBu-delta-PLH-3,5-diCl]
EC50 [1]: 9.49e-08 M
% cytotox Mean (Table 3.1): 87%

CC(C)(C)c1ccc(O)c(/C=c2\[nH]c(=O)/c(=C/c3ccccc3)[nH]c2=O)c1 [Compound 2422, tBu-delta-PLH-2-Hydroxybenzyl]
EC50 [1]: > 2e-05 M
% cytotox Mean (Table 3.1): 14%

CC(C)(C)c1[nH]cnc1/C=c1\[nH]c(=O)/c(=C/c2cc(Br)cs2)[nH]c1=O [Compound 2423, tBu-delta-PLH-4-Br-2-thionyl]
EC50 [1]: 1.71e-07 M
% cytotox Mean (Table 3.1): 86%

CCc1ccc(/C=c2\[nH]c(=O)/c(=C/c3nc[nH]c3C(C)(C)C)[nH]c2=O)s1 [Compound 2424, tBu-delta-PLH-5-Et-2-thionyl]
EC50 [1]: 1.32e-07 M
% cytotox Mean (Table 3.1): 87%

CC(C)(C)c1[nH]cnc1/C=c1\[nH]c(=O)/c(=C/c2ccc(Br)o2)[nH]c1=O [Compound 2425, tBu-delta-PLH-5-Br-2-furyl]
EC50 [1]: 3.05e-08 M
% cytotox Mean (Table 3.1): 87%

CCc1ccc(/C=c2\[nH]c(=O)/c(=C/c3nc[nH]c3C(C)(C)C)[nH]c2=O)o1 [Compound 2426, tBu-delta-PLH-5-Et-2-furyl]
EC50 [1]: 2.42e-07 M
% cytotox Mean (Table 3.1): 86%

CC(C)(C)c1[nH]cnc1/C=c1\[nH]c(=O)/c(=C/c2cc(I)ccc2F)[nH]c1=O [Compound 2428, tBu-delta-PLH-2-F-5-I]
EC50 [1]: 4.17e-08 M
% cytotox Mean (Table 3.1): 87%

CSc1ccccc1/C=c1\[nH]c(=O)/c(=C/c2nc[nH]c2C(C)(C)C)[nH]c1=O [Compound 2429, tBu-delta-PLH-2-(Methylthio)]
EC50 [1]: 2.86e-08 M
% cytotox Mean (Table 3.1): 87%

CC(C)(C)c1[nH]cnc1/C=c1\[nH]c(=O)/c(=C/c2cccc(OC(F)(F)F)c2)[nH]c1=O [Compound 2430, tBu-delta-PLH-m-OCF3]
EC50 [1]: 1.43e-08 M
% cytotox Mean (Table 3.1): 87%

COc1ccc(F)c(/C=c2\[nH]c(=O)/c(=C/c3nc[nH]c3C(C)(C)C)[nH]c2=O)c1 [Compound 2431, tBu-delta-PLH-2-F5-OMe]
EC50 [1]: 2.03e-08 M
% cytotox Mean (Table 3.1): 88%

COc1cc(/C=c2\[nH]c(=O)/c(=C/c3nc[nH]c3C(C)(C)C)[nH]c2=O)ccc1F [Compound 2432, tBu-delta-PLH-4-F-3-OMe]
EC50 [1]: 4.93e-07 M
% cytotox Mean (Table 3.1): 85%

CC(C)(C)c1ccc(O)c(/C=c2\[nH]c(=O)/c(=C/c3nc[nH]c3C(C)(C)C)[nH]c2=O)c1 [Compound 2433, tBu-delta-PLH-2-OH-5-tBU]
EC50 [1]: 8.53e-06 M
% cytotox Mean (Table 3.1): 80%

Cc1c(F)cccc1/C=c1\[nH]c(=O)/c(=C/c2nc[nH]c2C(C)(C)C)[nH]c1=O [Compound 2435, tBu-delta-PLH-2-Me-3-F]
EC50 [1]: 3.34e-08 M
% cytotox Mean (Table 3.1): 86%

Cc1ccc(F)c(/C=c2\[nH]c(=O)/c(=C/c3nc[nH]c3C(C)(C)C)[nH]c2=O)c1 [Compound 2436, tBu-delta-PLH-2-F-5-Me]
EC50 [1]: 2.5e-08 M
% cytotox Mean (Table 3.1): 86%

Cc1cccc(/C=c2\[nH]c(=O)/c(=C/c3nc[nH]c3C(C)(C)C)[nH]c2=O)c1C [Compound 2439, tBu-delta-PLH-2,3-di-Me]
EC50 [1]: 2.96e-09 M
% cytotox Mean (Table 3.1): 87%

COc1cccc(/C=c2\[nH]c(=O)/c(=C/c3nc[nH]c3C(C)(C)C)[nH]c2=O)c1[N+](=O)[O-] [Compound 2441, tBu-delta-PLH-2-NO2-3-OMe]
EC50 [1]: 6.63e-07 M
% cytotox Mean (Table 3.1): 83%

Cc1ccc(C)c(/C=c2\[nH]c(=O)/c(=C/c3nc[nH]c3C(C)(C)C)[nH]c2=O)c1 [Compound 2442, tBu-delta-PLH-2,5-diMe]
EC50 [1]: 8.82e-08 M
% cytotox Mean (Table 3.1): 87%
